Measurements: PubChem BioAssay (NCI)
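Compound exposure: 48 hours, 5 concentrations, 96-well plates. The concentration for 50% growth inhibition is given as GI50. TGI marks complete inhibition of growth.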

Experiments:
Test in all cases: inhibition of tumour cell growth, NCI panel, 48 h
[1] = system: OVCAR-3 ovarian
[2] = system: COLO 205 colon
[3] = system: OVCAR-4 ovarian
[4] = system: T-47D breast
[5] = system: TK-10 renal
[6] = system: UO-31 renal
[7] = system: SF-268 CNS
[8] = system: HOP-62 NSCLC
[9] = system: MDA-MB-231 breast
[10] = system: SK-OV-3 ovarian
[11] = system: MALME-3M melanoma

Row | SMILES | TGI [1] | TGI [2] | TGI [3] | TGI [4] | TGI [5] | TGI [6] | TGI [7] | TGI [8] | TGI [9] | TGI [10] | TGI [11] | GI50 [3] | GI50 [4] | GI50 [5] | GI50 [6] | GI50 [7] | GI50 [10] | GI50 [11]
1 | Cc1sc(/N=C/C2=C(O)CC(C)(C)CC2=O)nc1-c1ccccc1 | > 100 µM | > 100 µM | > 100 µM | > 100 µM | > 100 µM | > 100 µM | > 100 µM | > 100 µM | > 100 µM | > 100 µM |  |  |  |  |  |  |  | 
2 | CCOP1(=O)CC(C)=C(Cl)C(OC)C1 (stereo unspecified) | > 100 µM | > 100 µM | > 100 µM |  | > 100 µM |  | > 100 µM | > 100 µM | > 100 µM | > 100 µM | > 100 µM |  |  |  |  |  |  | 
3 | Cc1ccc(S(=O)(=O)OC[C@@]2(C)CC[C@]3(C)CC[C@]4(C)C(=C3C2)C=C[C@@H]2[C@@]3(C)CCCNC(C)(C)[C@@H]3CC[C@]24C)cc1 |  |  | 3.16 µM | 3.26 µM | 3.59 µM | 2.85 µM | 4.12 µM |  |  | 3.25 µM | 3.26 µM | 1.66 µM | 1.55 µM | 1.88 µM | 1.46 µM | 1.95 µM | 1.79 µM | 1.68 µM
4 | COC1OC2COC(=O)c3cc(O)c(O)c(O)c3-c3c(cc(O)c(O)c3O)C(=O)OC2C(O)C1O (stereo unspecified) | > 100 µM | > 100 µM | > 100 µM |  | > 100 µM | > 100 µM | > 100 µM | > 100 µM | > 100 µM | > 100 µM | > 100 µM |  |  |  |  |  |  | 
5 | S=C(NCc1ccccn1)N/N=C/c1ccccn1 | > 100 µM | 0.379 µM | > 30.5 µM | > 61.5 µM | > 100 µM | 32.6 µM | > 100 µM |  |  | 97.9 µM | 38.3 µM |  |  |  |  |  |  | 
6 | CCOc1ccc2nc(NC(=O)C(=O)C3C(=O)C(CC4C(=O)c5ccccc5C4=O)C(=O)CC3(C)C)sc2c1 (stereo unspecified) | > 100 µM | > 100 µM | > 100 µM |  | > 100 µM | > 100 µM | > 100 µM | > 100 µM | > 100 µM | > 100 µM |  |  |  |  |  |  |  | 
7 | CC(C)c1cc(=O)[nH]c2cc(N)ccc12 | > 100 µM | > 100 µM | > 100 µM | > 100 µM |  | > 100 µM |  | > 100 µM | > 100 µM |  |  |  |  |  |  |  |  | 
8 | Nc1nc(Cl)c2ncn(CCCC(c3ccccc3)P(=O)(O)O)c2n1 (stereo unspecified) | > 100 µM | > 100 µM |  |  | > 100 µM | > 100 µM | > 100 µM | > 100 µM |  | > 100 µM | > 100 µM |  |  |  |  |  |  | 
9 | CC(=O)OC1CCn2c1nc1cc([N+](=O)[O-])c(C)cc12 (stereo unspecified) | > 100 µM | > 100 µM | > 100 µM | > 100 µM |  | > 100 µM | > 100 µM |  | > 100 µM | > 100 µM | > 100 µM |  |  |  |  |  |  | 
10 | NC(=S)NNCC(=O)CC(O)(C(F)(F)F)C(F)(F)Cl (stereo unspecified) | > 100 µM | > 100 µM | > 100 µM | > 100 µM | > 100 µM | > 100 µM |  |  | > 100 µM | > 100 µM | > 100 µM |  |  |  |  |  |  | 
11 | Cc1cccc2c(=O)c3c(O)cc(O)cc3n(C)c12 | > 100 µM | > 100 µM | > 100 µM |  | > 100 µM |  | > 100 µM | > 100 µM | > 100 µM | > 100 µM | > 100 µM |  |  |  |  |  |  | 
12 | CCN(CC)c1c(C(C)(C)C)c(=O)n2ccsc2c1OC(C)=O | 30.8 µM | 31.8 µM | 28.9 µM |  | 34.7 µM | 31.7 µM | 30.1 µM | 26.1 µM | 32.5 µM | 36 µM | 25.8 µM |  |  |  |  |  |  | 
13 | CCCCCCCCCCCC1N=C(N)N=C(N)N1c1cccc(Br)c1 (stereo unspecified) |  |  |  |  | 2.94 µM | 13 µM | 2.7 µM |  |  | 4.28 µM | 3.38 µM |  |  | 1.56 µM | 4.89 µM | 1.28 µM | 1.92 µM | 1.77 µM
14 | CC(=O)N[C@@H](Cc1ccc(O)cn1)C(=O)NCc1ccc(Cl)cc1 | > 100 µM | > 100 µM | > 100 µM | > 100 µM | > 100 µM | > 100 µM |  | > 100 µM |  | > 100 µM | > 100 µM |  |  |  |  |  |  | 
15 | Nc1nc(Cl)c(CO)c(NCC2(CO)CCC2)n1 | > 100 µM | > 100 µM | > 100 µM |  | > 100 µM | > 100 µM | > 100 µM | > 100 µM | > 100 µM |  | > 100 µM |  |  |  |  |  |  | 
16 | O=CN1CCN(c2ccc3ccc(=O)[nH]c3n2)CC1 | > 100 µM | > 100 µM | > 100 µM |  | > 100 µM | > 100 µM | > 100 µM | > 100 µM | > 100 µM | > 100 µM | > 100 µM |  |  |  |  |  |  | 
